Data as given in US9708274B2, “Sulfoximine substituted quinazolines for pharmaceutical compositions” (EVOTEC INTERNATIONAL GMBH, priority 2013, dated 2017).
pIC50: −log10 of the molar value. One block for each molecule: values may come before it.

Assays:
[1] = biological target: MNK2a (Homo sapiens (Human), UniProt Q9HBH9); assay: MNK2a in vitro kinase assay (Assay 2), ADP-Glo; assay type: biochemical; conditions: read-out: MNK2 IC50
Procedure: The white, 384-well OptiPlate F plates were purchased from PerkinElmer. The ADP-Glo Kinase Assay (including ultra pure ATP) was purchased from Promega (V9103). Activated MNK2a was obtained as described in WO2011/104340. […] All other materials were of highest grade commercially available. Compounds are tested in either serial dilutions or single dose concentrations. The compound stock solutions are 10 mM in 100% DMSO The serial compound dilutions are prepared in 100% DMSO followed by 1:27.3 intermediate dilution in assay buffer. The final DMSO concentration in assay will be <3%.
In the 384-well plates 3 μl of test compound from the intermediate dilution is mixed with 4 μl of the activated MNK2 enzyme (final concentration of 10 nM) and 4 μl of the peptide (final concentration of 25 μM)/ultra pure ATP (final concentration of 20 μM), all dissolved in assay buffer. This step is followed by an incubation time of 90 min, then 10 μl of ADP Glo reagent are added, followed by 40 min of incubation. Then 20 μl of kinase detection reagent are admixed. The plates are sealed and after an incubation period of 30 min, the luminescence signal is measured in an Envision reader to determine the amount of produced ADP. All incubation steps are performed at room temperature. […]
IC50 values based on dose response curves are calculated with the AssayExplorer software.

[2] = biological target: MNK1a (Homo sapiens (Human), UniProt Q9BUB5); assay: MNK1 in vitro kinase assay (Assay 3), Z'-LYTE; assay type: biochemical; conditions: compound concentration of 1 μM
Chain of MNK1a (Q9BUB5 other isoform, or with tags, fused parts or gaps): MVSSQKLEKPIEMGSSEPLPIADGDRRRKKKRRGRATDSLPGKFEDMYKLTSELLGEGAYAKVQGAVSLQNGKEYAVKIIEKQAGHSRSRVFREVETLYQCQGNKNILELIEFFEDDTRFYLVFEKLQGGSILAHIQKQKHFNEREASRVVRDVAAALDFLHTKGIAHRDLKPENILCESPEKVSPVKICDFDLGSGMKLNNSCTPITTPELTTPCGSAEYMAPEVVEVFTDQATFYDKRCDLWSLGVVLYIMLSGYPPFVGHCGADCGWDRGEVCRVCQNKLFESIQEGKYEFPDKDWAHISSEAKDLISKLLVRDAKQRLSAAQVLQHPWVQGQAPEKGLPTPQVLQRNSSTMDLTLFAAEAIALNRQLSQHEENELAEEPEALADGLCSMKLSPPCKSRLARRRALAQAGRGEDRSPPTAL
Text: C. MNK1 In Vitro Kinase Assay (Assay 3)
MNK1 Data can be obtained from the MNK1 Z′-LYTE® assay. The MNK1 Z′-LYTE® screening protocol and assay conditions are also described on www.invitrogen.com.
The assay is described as follows:
The Z′-LYTE® biochemical assay employs a fluorescence-based, coupled-enzyme format and is based on the differential sensitivity of phosphorylated and non-phosphorylated peptides to proteolytic cleavage. The peptide substrate is labeled with two fluorophores—one at each end—that make up a FRET pair.
In the primary reaction, the kinase transfers the gamma-phosphate of ATP to a single tyrosine, serine or threonine residue in a synthetic FRET-peptide. In the secondary reaction, a site-specific protease recognizes and cleaves non-phosphorylated FRET-peptides. Phosphorylation of FRET-peptides suppresses cleavage by the Development Reagent. […] A ratiometric method, which calculates the ratio (the Emission Ratio) of donor emission to acceptor emission after excitation of the donor fluorophore at 400 nm, is used to quantitate reaction progress, as shown in the equation below.
ASSAY SETUP: The inhibition of kinase activity of MNK1a was assessed using pre-activated GST-MNK1a. […]
9. Read on fluorescence plate reader and analyze the data […]

[3] = test system: cell culture cells, transfected with MNK2 (MNK2a or MNK2b) or MNK1; conditions: addition to cell culture cells transfected with MNK2 (MNK2a or MNK2b) or MNK1; cited from earlier work

Chain of MNK2a (Q9HBH9 whole entry): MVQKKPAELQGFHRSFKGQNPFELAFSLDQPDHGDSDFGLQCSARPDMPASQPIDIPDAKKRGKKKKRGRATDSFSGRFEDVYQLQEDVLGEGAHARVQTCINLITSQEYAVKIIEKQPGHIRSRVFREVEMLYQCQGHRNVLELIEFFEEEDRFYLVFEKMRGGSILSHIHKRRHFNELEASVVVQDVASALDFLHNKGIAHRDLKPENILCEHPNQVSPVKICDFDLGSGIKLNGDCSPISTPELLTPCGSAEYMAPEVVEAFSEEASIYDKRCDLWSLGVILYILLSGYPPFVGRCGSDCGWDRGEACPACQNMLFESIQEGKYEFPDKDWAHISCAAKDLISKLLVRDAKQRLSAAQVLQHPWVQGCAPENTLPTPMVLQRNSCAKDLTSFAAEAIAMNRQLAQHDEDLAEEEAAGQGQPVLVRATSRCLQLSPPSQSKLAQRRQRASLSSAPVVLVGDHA

pIC50 [1]: 8.70
Compound: C[C@@H](Oc1cc(F)ccc1Nc1ncnc2cc(N=S3(=O)CCC3)cc(F)c12)C(=O)NCCC(F)(F)F [Example 4.108]

Compound: C[C@H](NC(=O)[C@@H](C)Oc1cc(F)ccc1Nc1ncnc2cc(N=S3(=O)CCC3)cc(F)c12)C(F)(F)F [Example 4.136]
MNK1 % INH [2]: 93%

Compound: Nc1ncnc2n[nH]c(Nc3ccc(F)cc3)c12 [CGP57380]
reduction of phosphorylated eIF4E [3]: strong reduction of phosphorylated eIF4E
